# Measured values: article PMC7601674, “CoQ10 Deficient Endothelial Cell Culture Model for the Investigation of CoQ10 Blood–Brain Barrier Transport” (Journal of Clinical Medicine, 2020)
# How the values were obtained:
# [1] = CoQ10 partition in serum lipoprotein fractions; type: in vitro ADME, bovine; conditions: for CoQ10 content in HDL fraction / CoQ10 content in LDL fraction: n = 3; for CoQ10 content in vLDL fraction: calculated by subtraction
# Method: Bovine plasma-derived serum (BPDS) was either untreated or supplemented with 10 µM CoQ10 for 45 min at 37 °C. Serum lipoproteins were then fractionated according to the method of Ononogbu et al. and the CoQ10 content measured in each fraction by LC-MS/MS. This lipoprotein fraction method is comprised of two parallel precipitation-centrifugation extractions, yielding a separation of the major classes of lipoprotein as supernatants containing “LDL + HDL” and “HDL”. The concentration of CoQ10 in the “VLDL” fraction was calculated by subtraction.
# [2] = design: method as in PMID 17482886, PMID 22272129; conditions: after oral-supplementation in vivo; cited from earlier work
# [3] = system: primary porcine brain endothelial cells (PBEC) monolayer; experiment: CoQ10 transport assay across PBEC monolayer on Transwell filters; conditions: for Transport to the Basal side, percentage of Apical compartment: A to B, no serum pre-incubation
# Method: (§1) Primary porcine brain endothelial cells (PBEC) were isolated and cultured as previously published. Briefly, cells were seeded at 10 × 10^4 cells/cm^2 on collagen and fibronectin-coated polycarbonate Transwell filters (Corning 0.4 µm pore size) in 12-well plates, and grown in low glucose DMEM (Sigma D5546) supplemented with bovine plasma-derived serum (10% v/v; BPDS, First Link UK), glutamine (2 mM), heparin (125 µg/mL), penicillin (100 U/mL) and streptomycin (100 µg/mL), at 37 °C in a 5% CO2 incubator. PBECs were grown in non-contact co-culture above primary rat astrocytes until confluent, then supplemented with hydrocortisone (550 nM), 8-4-chlorophenylthio-cAMP (250 µM) and RO-20-1724 (17.5 µM) in serum-free medium for a further 3 days. Before assays of CoQ10 transport, PBECs were separated from astrocytes by moving transwell filters to fresh culture plates.
# (§2) Unless stated, CoQ10 was pre-treated by incubation in serum at a concentration of 20 µM for 45 min at 37 °C, and added to assay buffer on either the Apical (blood facing) or Basal (brain facing) side of the cells on Transwell filters. The final concentration of CoQ10 used in the assays was 10 µM in serum (50% v/v). Cells were then incubated for 60 min on an orbital shaker (100 rpm) at 37 °C. Samples of the Apical (A) and Basal (B) media were then taken for analysis to calculate A to B (blood-to-brain) or B to A (brain-to-blood) Papp in cm/s, as previously described by Patabendige et al.. CoQ10 concentrations were determined using the LC-MS/MS method described above (Section 2.2).
# (§3) Inhibitors of transport were added to both Apical and Basal sides of the cells for 2 h prior to assay. Antioxidants were pre-incubated with CoQ10 in serum for 45 min prior to assay, and were present in the assay buffer. Compounds used were; SR-B1 inhibitor, blocker of lipid transport-1 (BLT-1; 10 µmol/L)
# [4] = system: bEnd.3 cells (mouse BBB cell line) monolayer; experiment: CoQ10 transport assay across bEnd.3 monolayer on Transwell filters (control or pABA treated)
# Method: as §2, §3
# (§4) As previously described, para-aminobenzoic acid (pABA) was used as a pharmacological reagent to induce CoQ10 deficiency. The mechanism of action is via competitive inhibition of polyprenyl-4-hydroxybenzoate transferase (Coq2p), a key enzyme in the later stages of the CoQ10 biosynthetic pathway. Following the method of Duberley et al., 1 mmol/L pABA was added to culture medium for 5 days prior to assay.
# [5] = system: CoQ10 deficient human neuroblastoma cells; design: method as in PMID 24534273; conditions: treatment with 10 μmol/L CoQ10; cited from earlier work
# ataxic symptoms = system: ataxic symptoms; design: method as in PMID 22490322; conditions: cerebellar ataxic phenotype, following CoQ10 supplementation; cited from earlier work
# [6] = design: method as in PMID 16647250; conditions: high-dose (1000–5000 mg/kg) CoQ10; cited from earlier work
# [7] = design: method as in PMID 9671775; conditions: diet supplemented with 200 mg/kg CoQ10 for 2 months; cited from earlier work
# MRC complex IV = experiment: Mitochondrial respiratory chain enzyme activity, complex IV; type: cell-based, mouse; conditions: bEND.3, 1 mM pABA 5 days
# Method: (§5) Activities of the mitochondrial respiratory chain enzymes; complex I, complex II-III and complex IV together with the mitochondrial marker enzyme, and citrate synthase (EC 2.3.3.1) were determined spectrophotometrically on a Uvikon XL spectrophotometer with LabPower software (Version 2.06S, Northstar Scientific Ltd., Potton, UK) according to the method previously described by Hargreaves et al.. Results were expressed as a ratio to citrate synthase activity, a validated biomarker of mitochondrial content, and were normalised against mg protein. Protein quantification was determined according to the Lowry method using BSA as a standard.
# [8] = system: citrate synthase (EC 2.3.3.1); experiment: Citrate synthase activity; type: cell-based, mouse; conditions: bEND.3, 1 mM pABA 5 days
# Method: as §5
# bEND.3 cells = experiment: MTT cell viability assay; type: cell-based, mouse; conditions: pABA up to 1 mM, 5 days
# Method: Cell viability was determined using the MTT assay described by Mosmann. Cells were passaged onto 96-well plates, grown to confluence and washed with HBSS prior to the addition of 3-[4,5-dimethylthiazol-2-yl]-2,5-diphenyl tetrazolium bromide (MTT; 1 mg/mL) in DMEM (without phenol red). Cells were then incubated for 4 h at 37 °C, 5% CO2, after which the medium was removed, and the remaining formazan crystals dissolved in propan-2-ol (100 μL/well). The resulting purple solution was spectrophotometrically measured at 540 nm using a Multiskan Ascent plate reader with Ascent software (MTX LabSystems, USA).
# [9] = system: bEnd.3 cellular CoQ10 content; experiment: Cellular CoQ10 depletion by pABA, bEnd.3; type: cell-based, mouse
# Method: (§6) Final CoQ10 concentrations (nmol/L) were calculated as a ratio of CoQ10/CoQ10–[^2H9] peak areas, and quantified against the corresponding calibration curve, with appropriate correction for dilution. For intracellular determination of CoQ10 the concentration was divided by total protein (mg/mL) and expressed as pmol/mg (nmol/g) of protein.
# [10] = system: PBEC cellular CoQ10 content; experiment: Cellular CoQ10 depletion by pABA, PBEC; type: cell-based, porcine
# Method: as §6
# MRC complex I = experiment: Mitochondrial respiratory chain enzyme activity, complex I; type: cell-based, mouse
# Method: as §5
# [11] = system: claudin-5 tight junction protein in PBEC; experiment: Confocal microscopy of claudin-5; type: cell-based, porcine; conditions: PBEC after 5 days pABA (1 mM)
# Method: Cells for confocal microscopy were fixed in paraformaldehyde (4% w/v in PBS) for 45 min, washed with HBSS and stored in glycerol (70% v/v in PBS) until use. Cells were permeabilised with Triton-x 100 (0.1% v/v in PBS), incubated with anti-Claudin 5 Monoclonal Antibody (4C3C2) Alexa Fluor 488 (1 in 80 dilution in DAKO, overnight, 4 °C, Thermofisher) to visualise tight junctions. Samples were then mounted in Vectashield containing DAPI for nuclei staining. The Nikon A1 inverted confocal microscope was used with spectral detector and Eclipse Ti-E microscope at ×40 magnification to generate digital images, analysed using Fiji (ImageJ).
# [12] = system: PBEC tight junction integrity; experiment: Transendothelial electrical resistance (TEER) of PBEC monolayer; type: cell-based, porcine; conditions: PBEC after 5 days pABA (1 mM); control 856 ± 71; n = 6
# Method: as §1, §4
# MRC complex II-III = experiment: Mitochondrial respiratory chain enzyme activity, complex II-III; type: cell-based, mouse
# Method: as §5
# [13] = serum supplemented with 10 μmol/L CoQ10
# [14] = serum supplemented with 10 μmol/L CoQ10, 45 min
# [15] = bEND.3, 1 mM pABA 5 days, ratio to citrate synthase
smiles,measurement,setting,value
"COC1=C(OC)C(=O)C(C/C=C(\C)CC/C=C(\C)CC/C=C(\C)CC/C=C(\C)CC/C=C(\C)CC/C=C(\C)CC/C=C(\C)CC/C=C(\C)CC/C=C(\C)CCC=C(C)C)=C(C)C1=O [CoQ10, Coenzyme Q10]",Supplemented CoQ10 recovered in the vLDL/LDL fractions,[1]; serum supplemented with 10 µM CoQ10,More than 92%
same,% of CoQ10 in HDL fraction,[1]; [13],7.2%
same,% of CoQ10 in LDL fraction,[1]; [13],63.8%
same,% of CoQ10 in vLDL fraction,[1]; [13],29%
same,CoQ10 content in HDL fraction,[1]; [14],762 ± 8.1 nmol/L
same,CoQ10 content in LDL fraction,[1]; [14],6718 ± 103.5 nmol/L
same,CoQ10 content in vLDL fraction,[1]; [13],3060 ± 138.8 nmol/L
same,Serum endogenous CoQ10 content,[1]; untreated cell culture serum,147.5 ± 0.5 nM
same,% of CoQ10 in HDL fraction,[1]; untreated serum,21.7%
same,% of CoQ10 in LDL fraction,[1]; untreated serum,77.7%
same,% of CoQ10 in vLDL fraction,[1]; untreated serum,0.6%
same,CoQ10 content in HDL fraction,[1]; untreated serum,32.7 ± 1.8 nmol/L
same,CoQ10 content in LDL fraction,[1]; untreated serum,117.0 ± 1.2 nmol/L
same,CoQ10 content in vLDL fraction,[1]; untreated serum,0.9 ± 0.01 nmol/L
same,Highest achievable CoQ10 plasma concentration,[2],10.7 µmol/L
same,"Transport to the Basal side, percentage of Apical compartment",[3]; 30 min,undetectable
same,"Transport to the Basal side, percentage of Apical compartment","[3]; after 2 h, n = 4",0.51 ± 0.15%
same,Increase of transport across PBEC monolayer after pre-incubation in serum,[3]; CoQ10 pre-incubated 45 min in serum (BPDS) vs no serum,4 fold
same,Effect of serum pre-incubation on Papp (A to B and B to A),"[3]; PBEC, 60 min",enhanced transport in both directions
same,Transport across monolayer after pABA treatment vs control,"[3]; PBEC, pABA 1 mM 5 days",increased transport
same,Effect of serum pre-incubation on Papp (A to B and B to A),"[4]; bEnd.3, 60 min",enhanced transport in both directions
same,NET CoQ10 Apical to Basal Papp (A to B Papp - B to A Papp),"[4]; bEnd.3, Control",-0.02 ×10⁻⁶ cm/s
same,NET CoQ10 Apical to Basal Papp (A to B Papp - B to A Papp),"[4]; bEnd.3, LDLR inhib (RAP 0.5 µM)",0.1 ×10⁻⁶ cm/s
same,NET CoQ10 Apical to Basal Papp (A to B Papp - B to A Papp),"[4]; bEnd.3, P-gp inhib (verapamil 0.1 mM)",-0.04 ×10⁻⁶ cm/s
same,NET CoQ10 Apical to Basal Papp (A to B Papp - B to A Papp),"[4]; bEnd.3, RAGE inhib (FPS-ZM1 1 µM)",-0.08 ×10⁻⁶ cm/s
same,NET CoQ10 Apical to Basal Papp (A to B Papp - B to A Papp),"[4]; bEnd.3, SR-B1 inhib (BLT-1 10 µM)",-0.13 ×10⁻⁶ cm/s
same,Transport across monolayer after pABA treatment vs control,"[4]; bEnd.3, pABA 1 mM 5 days",increased transport
same,MRC function,[5],restores MRC function
same,Patients with improvement/stabilisation in ataxic symptoms,ataxic symptoms,49%
same,Brain levels of CoQ10 and CoQ9,[6],significantly increased in brain levels of CoQ10 and CoQ9
same,Increase in cerebral cortex CoQ10 and CoQ9,[7],30%
"Nc1ccc(C(=O)O)cc1 [pABA, para-aminobenzoic acid]","MRC complex IV activity, % of control",MRC complex IV,80 % of control
same,Citrate synthase activity,[8],no significant change
same,Cell viability,bEND.3 cells,no change in cell viability
same,Depletion of cellular CoQ10 relative to controls,"[9]; bEnd.3, 1 mM pABA 5 days, n = 4",43%
same,"Cellular CoQ10, % of control","[9]; bEnd.3, pABA 1 mmol/L 5 days",57 % of control
same,Depletion of cellular CoQ10 relative to controls,"[10]; 1 mM pABA 5 days, n = 4",36%
same,"Cellular CoQ10, % of control",[10]; pABA 1 mmol/L 5 days,36 % of control
same,Decrease in MRC complex I activity,MRC complex I; [15],68%
same,"MRC complex I activity, % of control","MRC complex I; bEnd.3, pABA 1 mmol/L 5 days",32 % of control
same,Claudin-5 localisation,[11],re-location of claudin-5 tight junction protein away from the cell membrane
same,Transendothelial electrical resistance (TEER),[12],49 ± 9 Ω · cm^2
same,Decrease in MRC complex II-III activity,MRC complex II-III; [15],72%
same,"MRC complexes II-III activity, % of control","MRC complex II-III; bEnd.3, pABA 1 mmol/L 5 days",28 % of control
